In ChEMBL document CHEMBL1821574, “Structure-activity relationships of 4-position diamine quinoline methanols as intermittent preventative treatment (IPT) against Plasmodium falciparum” (J Med Chem, 2011):
Values after ≈ are worked out from the molar mass of the structure shown.

Key:
[1] = tested on: Plasmodium falciparum; assay: Antimalarial activity against chloroquine-sensitive and mefloquine-resistant Plasmodium falciparum D6 assessed as inhibition of [3H]hypoxanthine incorporation by liquid scintillation spectrometry; format: functional
[2] = tested on: Plasmodium falciparum; assay: Antimalarial activity against chloroquine, mefloquine and pyrimethamine-resistant Plasmodium falciparum TM90C2A assessed as inhibition of [3H]hypoxanthine incorporation by liquid scintillation spectrometry; format: functional
[3] = tested on: Plasmodium falciparum; assay: Antimalarial activity against chloroquine-resistant and mefloquine-sensitive Plasmodium falciparum W2 assessed as inhibition of [3H]hypoxanthine incorporation by liquid scintillation spectrometry; format: functional
[4] = tested on: Plasmodium falciparum; assay: Antimalarial activity against chloroquine, mefloquine and pyrimethamine-resistant Plasmodium falciparum TM91C235 assessed as inhibition of [3H]hypoxanthine incorporation by liquid scintillation spectrometry; format: functional
[5] = Apparent permeability from apical to basolateral side of dog MDCK cells at 5 uM after 2 hrs by LC/MS/MS analysis; format: ADME, cell-based, Canis lupus familiaris
[6] = tested on: Plasmodium falciparum; assay: Antimalarial activity against chloroquine-sensitive and mefloquine-resistant Plasmodium falciparum D6 by SYBR Green I-based fluorescence assay; format: functional
[7] = tested on: Plasmodium falciparum; assay: Antimalarial activity against chloroquine, mefloquine and pyrimethamine-resistant Plasmodium falciparum TM91C235 by SYBR Green I-based fluorescence assay; format: functional

SMILES | IC90 [1] [µg/mL] | IC90 [2] [µg/mL] | IC90 [3] [µg/mL] | IC90 [4] [µg/mL] | Papp A→B at 2 h, 5 µM [5] [×10⁻⁶ cm/s] | IC90 [6] [µg/mL] | IC90 [7] [µg/mL]
OC(CNC[C@@]12CCC[C@@H]1CNC2)c1cc(C(F)(F)F)nc2c(C(F)(F)F)cccc12 (stereo not given in full) | 0.165 (≈ 0.369 µM) | 0.358 (≈ 0.8 µM) | 0.885 (≈ 1.98 µM) | 0.433 (≈ 0.968 µM) | – | – | –
NCCCNCCNCC(O)c1cc(C(F)(F)F)nc2c(C(F)(F)F)cccc12 (stereo not given) | 0.38 (≈ 0.895 µM) | > 0.5 | > 0.5 | > 0.5 | – | – | –
CC(CNC(C)(C)C)NCC(O)c1cc(C(F)(F)F)nc2c(C(F)(F)F)cccc12 (stereo not given) | – | – | – | – | 13.1 | 0.015 (≈ 0.0343 µM) | 0.041 (≈ 0.0937 µM)
CNCCNCC(O)c1cc(C(F)(F)F)nc2c(C(F)(F)F)cccc12 (stereo not given) | > 0.5 | > 0.5 | 0.481 (≈ 1.26 µM) | > 0.5 | – | – | –
CNCCN(C)CC(O)c1cc(C(F)(F)F)nc2c(C(F)(F)F)cccc12 (stereo not given) | – | – | – | – | 5.66 | 0.432 (≈ 1.09 µM) | 0.755 (≈ 1.91 µM)
CN(C)CCNCC(O)c1cc(C(F)(F)F)nc2c(C(F)(F)F)cccc12 (stereo not given) | > 0.5 | > 0.5 | > 0.5 | > 0.5 | – | – | –
NCCNCC(O)c1cc(C(F)(F)F)nc2c(C(F)(F)F)cccc12 (stereo not given) | – | – | – | – | 3.1 | 0.988 (≈ 2.69 µM) | 1.14 (≈ 3.11 µM)
CC(C)(C)NCCNCC(O)c1cc(C(F)(F)F)nc2c(C(F)(F)F)cccc12 (stereo not given) | – | – | – | – | 11.2 | 0.243 (≈ 0.574 µM) | 0.504 (≈ 1.19 µM)
OC(CNCCN1CC2CCC1C2)c1cc(C(F)(F)F)nc2c(C(F)(F)F)cccc12 (stereo not given) | – | – | – | – | 14.2 | 0.844 (≈ 1.89 µM) | 0.972 (≈ 2.17 µM)
OC(CNCCNCc1ccncc1)c1cc(C(F)(F)F)nc2c(C(F)(F)F)cccc12 (stereo not given) | 0.38 (≈ 0.829 µM) | > 0.5 | 0.47 (≈ 1.03 µM) | > 0.5 | – | 0.38 (≈ 0.829 µM) | > 0.5
CN(CCN(C)CC(O)c1cc(C(F)(F)F)nc2c(C(F)(F)F)cccc12)CC(O)c1cc(C(F)(F)F)nc2c(C(F)(F)F)cccc12 (stereo not given) | – | – | – | – | – | 0.329 (≈ 0.468 µM) | 0.375 (≈ 0.534 µM)
CC(C)NCCNCC(O)c1cc(C(F)(F)F)nc2c(C(F)(F)F)cccc12 (stereo not given) | – | – | – | – | 12.7 | 0.012 (≈ 0.0293 µM) | 0.032 (≈ 0.0782 µM)
Cc1ccc(S(=O)(=O)N(CCN2CCCCC2)CC(O)c2cc(C(F)(F)F)nc3c(C(F)(F)F)cccc23)cc1 (stereo not given) | – | – | – | – | 2.5 | 0.071 (≈ 0.12 µM) | 0.214 (≈ 0.363 µM)
CN(C)CCN(CC(O)c1cc(C(F)(F)F)nc2c(C(F)(F)F)cccc12)CC(O)c1cc(C(F)(F)F)nc2c(C(F)(F)F)cccc12 (stereo not given) | – | – | – | – | – | > 0.5 | > 0.5
CC(C)N(CCN)CC(O)c1cc(C(F)(F)F)nc2c(C(F)(F)F)cccc12 (stereo not given) | – | – | – | – | – | 0.439 (≈ 1.07 µM) | 0.627 (≈ 1.53 µM)
OC(CNCCNCc1ccccc1)c1cc(C(F)(F)F)nc2c(C(F)(F)F)cccc12 (stereo not given) | 0.025 (≈ 0.0547 µM) | – | 0.006 (≈ 0.0131 µM) | – | 8.5 | 0.029 (≈ 0.0634 µM) | 0.04 (≈ 0.0874 µM)
CNCCN(CC(O)c1cc(C(F)(F)F)nc2c(C(F)(F)F)cccc12)CC(O)c1cc(C(F)(F)F)nc2c(C(F)(F)F)cccc12 (stereo not given) | – | – | – | – | 0.3 | 0.022 (≈ 0.032 µM) | 0.03 (≈ 0.0436 µM)
CC(CNC1CCCC1)NCC(O)c1cc(C(F)(F)F)nc2c(C(F)(F)F)cccc12 (stereo not given) | – | – | – | – | 11.1 | 0.03 (≈ 0.0667 µM) | 0.124 (≈ 0.276 µM)
OC(CNC[C@]12CC[C@H](C1)NC2)c1cc(C(F)(F)F)nc2c(C(F)(F)F)cccc12 (stereo not given in full) | > 0.5 | > 0.5 | 0.57 (≈ 1.32 µM) | > 0.5 | – | – | –
CC(CNC1CCC1)NCC(O)c1cc(C(F)(F)F)nc2c(C(F)(F)F)cccc12 (stereo not given) | – | – | – | – | 10.4 | 0.0014 (≈ 0.00322 µM) | 0.0093 (≈ 0.0214 µM)
OC(CNCCNC1CCCC1)c1cc(C(F)(F)F)nc2c(C(F)(F)F)cccc12 (stereo not given) | – | – | – | – | 3 | 0.11 (≈ 0.253 µM) | 0.198 (≈ 0.455 µM)
